Measured values taken from patent US8071314B2 (priority 2001, dated 2011).
Values joined by “and” are separate entries in the source; they are usually repeats but may differ in a detail not shown here. Equal values may be shown once. Read-outs that look alike come from different tables or passages of the source.

System: N-methyl-D-aspartate (NMDA) receptor
Format: cell-based, mouse

SMILES: NC(CCCP(=O)(O)O)C(=O)O [D-APV, 2-amino-5-phosphonovalerate]
- LTP in the presence of the NMDA antagonist (50 μM D-APV, all genotypes, hippocampal slices, 100 Hz tetanus, 100 μM picrotoxin in bath): completely abolished
- Posttetanus fEPSP slopes, averaged over 180 min (relative to baseline) (n=3): 107±14% and 97±9%
- Posttetanus fEPSP slopes, averaged over 180 min (relative to baseline) (n=5): 106±10%
